Experimental data as given in patent publication US20230404976A1, “PHARMACEUTICAL COMBINATION CONTAINING CAPSID PROTEIN INHIBITOR AND NUCLEOSIDE ANALOG” (priority 2020, published 2023).

Test system: HBV DNA in mouse serum (rAAV8-1.3HBV, type D, ayw)
Test: AAV/HBV mouse model: qPCR quantification of HBV DNA in mouse serum
Type: in vivo, C57BL/6 mice
Conditions: for HBV DNA (log10, copy/μL) time (days) post-dose: 3: day 3; for HBV DNA (log10, copy/μL) time (days) post-dose: 3 / HBV DNA (log10, copy/μL) time (days) post-dose: 7 / HBV DNA (log10, copy/μL) time (days) post-dose: 14 / HBV DNA (log10, copy/μL) time (days) post-dose: 21 / HBV DNA (log10, copy/μL) time (days) post-dose: 28: i.g. days 0-27; for HBV DNA (log10, copy/μL) time (days) post-dose: 7: day 7; for HBV DNA (log10, copy/μL) time (days) post-dose: 14: day 14; for HBV DNA (log10, copy/μL) time (days) post-dose: 21: day 21; for HBV DNA (log10, copy/μL) time (days) post-dose: −1: day −1 (before first dose)
Method: Male C57BL/6 mice, 5 weeks old, free of specific pathogens, purchased from Shanghai Slac Laboratory Animal Co., Ltd., housed in independent ventilated cages. The mice were acclimatized for 3 days and then injected with the AAV/HBV virus.
rAAV8-1.3HBV (type D, ayw) was purchased from FivePlus, Beijing. It was diluted with sterile PBS to 5×10^11 v.g./mL before experiment. Each mouse was injected with 200 μL, i.e., 1×10^11 v.g.
AAV/HBV injection: rAAV8-1.3HBV was prepared into a 1×10^11 v.g./200 μL solution with sterile PBS in advance before injection. Mice were injected with 200 μL of the rAAV8-1.3HBV solution via the tail vein.
Grouping: On day 27 post virus injection, according to the serum HBV DNA, HBeAg and HBsAg results on days 14 and 21, the mice were randomized into groups of 8 or 4 and correspondingly treated according to the experimental design.
Group number: • i. Solvent group; • ii. Monotherapy group: entecavir; • iii. Monotherapy group: the compound of formula I 3 mpk; • iv. Combination group (combo): the compound of formula I 3 mpk and entecavir; • v. Monotherapy group: the compound of formula I 10 mpk; • vi. Combination group (combo): the compound of formula I 10 mpk and entecavir.
Compound treatment: On day 28 post infection, all mice were intragastrically administered a solvent or compound. The day of the first administration was counted as day 0 of experiment, and the duration of administration was from day 0 to day 27. Entecavir was administered once daily (QD) and the compound of formula I was administered twice daily (BID, 8 hr/16 hr apart). The administration volume was 10 mL/kg.
Non-endpoint blood collection: On day −1, 3, 7, 14, 21, 28, 35 or 42, about 120 μL of blood was collected from the submandibular vein, and serum was collected and assayed for HBV DNA. If blood collection and administration were on the same day, blood collection was performed about 5 hours after the first administration on that day.
Endpoints of experiment: mice in groups i-iv were euthanized on day 28. Blood was collected from the hearts of the mice, and serum was collected and assayed for HBV DNA. The endpoints of experiment for groups v and vi were on day 42.
qPCR Quantification of HBV DNA in mouse serum: The DNA was extracted from serum, and the experiment was performed by following the instructions for QIAamp 96 DNA Blood Kit. qPCR conditions: 95 ° C., 10 min, 1 cycle; 95° C., 15 s; 60° C., 1 min; 40 cycles.
Data were expressed as mean ±standard error, and statistical analysis was performed using Student t test.

[1] = entecavir 0.001 mg/kg QD, compound of formula I 3 mg/kg BID, mean ± standard error, LLOQ 2.08
[2] = compound of formula I 10 mg/kg BID, entecavir 0.001 mg/kg QD, values below LLOQ expressed as 2.08
[3] = day 28 (endpoint), entecavir 0.001 mg/kg QD, compound of formula I 3 mg/kg BID, mean ± standard error, LLOQ 2.08
[4] = Table 4 groups: entecavir 0.001 mg/kg QD, compound of formula I 3 mg/kg BID, i.g., mean ± standard error

For `C[C@]1(NC(=O)C(=O)c2c(Cl)c(C(=O)Nc3cc(F)c(F)c(F)c3)c3n2CCC3)CC[C@H](CC(=O)O)CC1` [Compound of formula I, 2-((1r,4r)-4-(2-(6-chloro-7((3,4,5-trifluorophenyl)carbamoyl)-2,3-dihydro-1H-pyrrolin-5-yl)-2-oxalylamino)-4-methylcyclohexyl)acetic acid], the “HBV DNA (log10, copy/μL) time (days) post-dose: 3” value [1] was 3.71 ± 0.10 log10, copy/μL, the “HBV DNA (log10, copy/μL) time (days) post-dose: 7” value [1] was 3.63 ± 0.09 log10, copy/μL and the “HBV DNA (log10, copy/μL) time (days) post-dose: 14” value (shortened to “HBV DNA (log10, copy/μL) time … 14”) [2] was 2.10 ± 0.02 log10, copy/μL. The “HBV DNA (log10, copy/μL) time … 14” value [1] was 3.71 ± 0.06 log10, copy/μL, the “HBV DNA (log10, copy/μL) time (days) post-dose: 21” value (“HBV DNA (log10, copy/μL) time … 21” below) [2] was 2.08 ± 0.00 log10, copy/μL and the “HBV DNA (log10, copy/μL) time … 21” value [1] was 3.61 ± 0.11 log10, copy/μL. The “HBV DNA (log10, copy/μL) time (days) post-dose: 28” value (from here on “HBV DNA (log10, copy/μL) time … 28”) [3] was 3.96 ± 0.11 log10, copy/μL, the “HBV DNA (log10, copy/μL) time … 28” value (day 28, compound of formula I 10 mg/kg BID, entecavir 0.001 mg/kg QD, values below LLOQ expressed as 2.08) was 2.12 ± 0.04 log10, copy/μL and the “HBV DNA (log10, copy/μL) time (days) post-dose: 31” value (day 31 (after end of dosing on day 27), compound of formula I 10 mg/kg BID, entecavir 0.001 mg/kg QD, i.g., LLOQ 2.08) was 3.56 ± 0.12 log10, copy/μL. The “HBV DNA (log10, copy/μL) time (days) post-dose: 35” value (day 35 (after end of dosing on day 27), compound of formula I 10 mg/kg BID, entecavir 0.001 mg/kg QD, i.g., LLOQ 2.08) was 4.38 ± 0.09 log10, copy/μL, the “HBV DNA (log10, copy/μL) time (days) post-dose: 42” value (day 42 (endpoint, after end of dosing on day 27), compound of formula I 10 mg/kg BID, entecavir 0.001 mg/kg QD, i.g., LLOQ 2.08) was 4.64 ± 0.08 log10, copy/μL and the “HBV DNA (log10, copy/μL) time (days) post-dose: −1” value (shortened to “HBV DNA (log10, copy/μL) time … −1”) [4] was 4.46 ± 0.07 log10, copy/μL. For the same molecule, the “HBV DNA (log10, copy/μL) time … −1” value (Table 5 groups: compound of formula I 10 mg/kg BID, entecavir 0.001 mg/kg QD, i.g., mean ± standard error) was 4.45 ± 0.07 log10, copy/μL.

For `C=C1[C@H](CO)[C@@H](O)C[C@@H]1n1cnc2c(=O)[nH]c(N)nc21` [Entecavir, 2-amino-9-[(1S,3R,4S)-4-hydroxy-3-hydroxymethyl-2-methylenecyclopentyl]-1,9-dihydro-6H-purin-6-one, reference compound], the “HBV DNA (log10, copy/μL) time (days) post-dose: 3” value [1] was 3.11 ± 0.10 log10, copy/μL, the “HBV DNA (log10, copy/μL) time (days) post-dose: 7” value [1] was 2.69 ± 0.11 log10, copy/μL and the “HBV DNA (log10, copy/μL) time … 14” value [1] was 2.75 ± 0.13 log10, copy/μL. For the same molecule, the “HBV DNA (log10, copy/μL) time … 21” value [1] was 2.79 ± 0.12 log10, copy/μL, the “HBV DNA (log10, copy/μL) time … 28” value [3] was 2.70 ± 0.17 log10, copy/μL and the “HBV DNA (log10, copy/μL) time … −1” value [4] was 4.19 ± 0.12 log10, copy/μL.
